Consider four compounds from ChEMBL document CHEMBL1671722, “Comparative in vitro activity profiles of novel bis-indole antibacterials against gram-positive and gram-negative clinical isolates” (Antimicrob Agents Chemother, 2010).

Common to all, as to type: functional
Test [1] has as its system Enterococcus faecium. Briefly: Antimicrobial activity against vancomycin-resistant Enterococcus faecium by broth microdilution method. For orientation: In broth dilution the organism is exposed to a series of concentrations in liquid medium.
The subject of test [2] is Burkholderia cepacia. Briefly: Antimicrobial activity against Burkholderia cepacia by broth microdilution method.
Test [3] concerns Escherichia coli. In words: Antimicrobial activity against Escherichia coli by broth microdilution method.
The subject of test [4] is Streptococcus pneumoniae. Briefly: Antimicrobial activity against penicillin-intermediate Streptococcus pneumoniae by broth microdilution method.
In test [5] the test system is Streptococcus pneumoniae. In words: Antimicrobial activity against penicillin-susceptible Streptococcus pneumoniae by broth microdilution method.
Test [6] has as its system Streptococcus pneumoniae. In words: Antimicrobial activity against penicillin-resistant Streptococcus pneumoniae by broth microdilution method.
The test system of test [7] is Klebsiella pneumoniae. In words: Antimicrobial activity against Klebsiella pneumoniae by broth microdilution method.
The subject of test [8] is Klebsiella pneumoniae. Briefly: Antimicrobial activity against ESBL-production Klebsiella pneumoniae by broth microdilution method.
Test [9] concerns Enterococcus faecalis. Briefly: Antimicrobial activity against vancomycin-resistant Enterococcus faecalis by broth microdilution method.
For test [10], the system named is Staphylococcus epidermidis. In words: Antimicrobial activity against methicillin-susceptible Staphylococcus epidermidis by broth microdilution method.
In test [11] the test system is Acinetobacter baumannii. In words: Antimicrobial activity against multiple dug-resistant Acinetobacter baumannii by broth microdilution method.
Test [12] relates to Enterococcus faecalis. Briefly: Antimicrobial activity against vancomycin-susceptible Enterococcus faecalis by broth microdilution method.
In test [13] the test system is Streptococcus agalactiae. Briefly: Antimicrobial activity against Streptococcus agalactiae by broth microdilution method.
The subject of test [14] is Acinetobacter baumannii. In words: Antimicrobial activity against Acinetobacter baumannii by broth microdilution method.
In test [15] the test system is Pseudomonas aeruginosa. In words: Antimicrobial activity against Pseudomonas aeruginosa by broth microdilution method.
The subject of test [16] is Staphylococcus epidermidis. In words: Antimicrobial activity against methicillin-resistant Staphylococcus epidermidis by broth microdilution method.
Test [17] concerns Proteus mirabilis. In words: Antimicrobial activity against Proteus mirabilis by broth microdilution method.
In test [18] the test system is Clostridioides difficile. Briefly: Antimicrobial activity against Clostridium difficile by broth microdilution method.
Test [19] has as its system Enterococcus faecium. Briefly: Antimicrobial activity against vancomycin-susceptible Enterococcus faecium by broth microdilution method.
The test system of test [20] is Serratia marcescens. Briefly: Antimicrobial activity against Serratia marcescens by broth microdilution method.
Test [21] has as its system Staphylococcus aureus. Briefly: Antimicrobial activity against methicillin-resistant Staphylococcus aureus by broth microdilution method.
Test [22] deals with Staphylococcus aureus. Briefly: Antimicrobial activity against methicillin-susceptible Staphylococcus aureus by broth microdilution method.
Test [23] deals with Haemophilus influenzae. Briefly: Antimicrobial activity against Haemophilus influenzae by broth microdilution method.

≈ marks a conversion by molar mass, not a printed value.

As to `C[C@@H](O)[C@H]1C(=O)N2C(C(=O)O)=C(SCCNC=N)C[C@H]12` [IMIPENEM ANHYDROUS], the MIC in test [1] is 8 µg/mL (≈ 26.7 µM); in [2], 4 µg/mL (≈ 13.4 µM); in test [5] it was less than 0.008 µg/mL; in [10], 0.015 µg/mL (≈ 0.0501 µM); in test [13] it was 0.06 µg/mL (≈ 0.2 µM); in test [15], 0.05 µg/mL (≈ 0.167 µM). Also, the MIC50 is 8 µg/mL (≈ 26.7 µM) in test [1]; 4 µg/mL (≈ 13.4 µM) in test [2]; 0.25 µg/mL (≈ 0.835 µM) in [3]; 0.03 µg/mL (≈ 0.1 µM) in test [4]; less than 0.008 µg/mL in [5]; 0.25 µg/mL (≈ 0.835 µM) in test [6]. Also, the MIC50 was 0.12 µg/mL (≈ 0.401 µM) in [7]; 0.25 µg/mL (≈ 0.835 µM) in test [8]; 2 µg/mL (≈ 6.68 µM) in [9]; 0.015 µg/mL (≈ 0.0501 µM) in [10]; 4 µg/mL (≈ 13.4 µM) in [11]; 1 µg/mL (≈ 3.34 µM) in [12]. The MIC50 in [13] was 0.06 µg/mL (≈ 0.2 µM); in [15], 1 µg/mL (≈ 3.34 µM); in [16] it was 8 µg/mL (≈ 26.7 µM); in [17] it was 4 µg/mL (≈ 13.4 µM); in test [18] it was 4 µg/mL (≈ 13.4 µM); in [19], more than 8 µg/mL. Further, the MIC50 in [20] turned out to be 4 µg/mL (≈ 13.4 µM); in test [21], 1 µg/mL (≈ 3.34 µM); in [22] it was 0.015 µg/mL (≈ 0.0501 µM). Besides, the MIC90 was 8 µg/mL (≈ 26.7 µM) in [1]; more than 8 µg/mL in test [2]; 0.25 µg/mL (≈ 0.835 µM) in test [3]; 0.25 µg/mL (≈ 0.835 µM) in test [4]; less than 0.008 µg/mL in test [5]; 1 µg/mL (≈ 3.34 µM) in [6]. The MIC90 came out at 1 µg/mL (≈ 3.34 µM) in test [7]; 1 µg/mL (≈ 3.34 µM) in [8]; 2 µg/mL (≈ 6.68 µM) in test [9]; 0.015 µg/mL (≈ 0.0501 µM) in [10]; 4 µg/mL (≈ 13.4 µM) in [12]; 0.06 µg/mL (≈ 0.2 µM) in test [13]. The MIC90 in [14] was more than 32 µg/mL; in [15] it was more than 8 µg/mL; in test [16], more than 8 µg/mL; in [17] it was 8 µg/mL (≈ 26.7 µM); in test [18], 8 µg/mL (≈ 26.7 µM); in [19], more than 8 µg/mL. Besides, the MIC90 was more than 8 µg/mL in test [20], 8 µg/mL (≈ 26.7 µM) in test [21] and 0.03 µg/mL (≈ 0.1 µM) in test [22].
As for `CO/N=C(\C(=O)N[C@@H]1C(=O)N2C(C(=O)O)=C(COC(C)=O)CS[C@H]12)c1csc(N)n1` [CEFOTAXIME], in test [23], the MIC50 amounted to 1 µg/mL (≈ 2.2 µM) and the MIC90 was more than 4 µg/mL.
As for `C[C@H]1COc2c(N3CCN(C)CC3)c(F)cc3c(=O)c(C(=O)O)cn1c23.C[C@H]1COc2c(N3CCN(C)CC3)c(F)cc3c(=O)c(C(=O)O)cn1c23.O` [LEVOFLOXACIN], in [23], the MIC was found to be 0.08 µg/mL, the MIC50 was 0.015 µg/mL and the MIC90 came to 0.06 µg/mL.
Turning to `CN(C)c1cc(NC(=O)CNC(C)(C)C)c(O)c2c1C[C@H]1C[C@H]3[C@H](N(C)C)C(O)=C(C(N)=O)C(=O)[C@@]3(O)C(O)=C1C2=O` [TIGECYCLINE], the MIC50 was more than 8 µg/mL in test [2]; 0.12 µg/mL (≈ 0.205 µM) in test [3]; 1 µg/mL (≈ 1.71 µM) in [7]; 0.03 µg/mL (≈ 0.0512 µM) in test [8]; 0.5 µg/mL (≈ 0.854 µM) in test [11]; 0.25 µg/mL (≈ 0.427 µM) in [14]. For the same compound, the MIC50 in test [15], in [17] and in test [20] was 0.5 µg/mL (≈ 0.854 µM) throughout. Also, the MIC90 in [2] was more than 8 µg/mL; in [3], 0.25 µg/mL (≈ 0.427 µM); in [7] it was more than 8 µg/mL; in test [8], more than 2 µg/mL; in test [11], 2 µg/mL (≈ 3.41 µM); in test [14] it was more than 8 µg/mL. Moreover, the MIC90 in test [15] is more than 32 µg/mL; in [17] it was more than 32 µg/mL; in [20] it was 2 µg/mL (≈ 3.41 µM). Also, the MIC in test [3] is 0.12 µg/mL (≈ 0.205 µM).
